From patent US20170334899A1, “AMINO-SUBSTITUTED ISOTHIAZOLES” (Bayer Pharma Aktiengesellschaft, priority 2014, published 2017)

tested on: human cervical tumor cell line HeLa (ATCC CCL-2); experiment: SAC-Formation - Paclitaxel-Induced Assay; format: cell-based; conditions: Homo sapiens, HeLa, 24 h, HeLa cells, paclitaxel 0.05 μM, test range 0.005 μM-20 μM, read-out: IC50 [mol/l] SAC-Formation - Paclitaxel-Induced Assay
Outline: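 HeLa cells incubated overnight at 37° C, then given paclitaxel (0.05 μM final) plus test compound (0.005–20 μM, 0.5% DMSO) together for 24 h at 37° C. Fixed cells stained for phospho-histone H3 Ser10 (mitotic cells) and Hoechst 33342 (cell count); imaging-derived mitotic index fitted by four-parameter Hill equation.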

Compound | IC50 [nM]
Cc1nsc(Nc2cncc(C(F)(F)F)n2)c1C(=O)Nc1ccc(OCCCN)nc1 [Example 209, N-[6-(3-aminopropoxy)pyridin-3-yl]-3-methyl-5-{[6-(trifluoromethyl)pyrazin-2-yl]amino}-1,2-thiazole-4-carboxamide] | 2300
Cc1nsc(Nc2cnc(C(F)(F)F)cn2)c1C(=O)Nc1ccc(OCCNC(=O)OC(C)(C)C)c(F)c1 [Example 215, tert-butyl [2-(2-fluoro-4-{[(3-methyl-5-{[5-(trifluoromethyl)pyrazin-2-yl]amino}-1,2-thiazol-4-yl)carbonyl]amino}phenoxy)ethyl]carbamate] | 72
Cc1nsc(Nc2cnc3ccccc3n2)c1C(=O)Nc1ccc(Nc2ccc(F)c(F)c2)nc1 [Example 245, N-{6-[(3,4-difluorophenyl)amino]pyridin-3-yl}-3-methyl-5-(quinoxalin-2-ylamino)-1,2-thiazole-4-carboxamide] | 1700
COC(=O)c1cc(NC(=O)c2c(C)nsc2Nc2cnc3ccccc3n2)cc(C(=O)OC)c1 [Example 237, dimethyl 5-({[3-methyl-5-(quinoxalin-2-ylamino)-1,2-thiazol-4-yl]carbonyl}amino)isophthalate] | 20000
Cc1nsc(Nc2cnc3ccccc3n2)c1C(=O)Nc1ccc(NC2CCCN(C(=O)OC(C)(C)C)C2)nc1 (stereo not shown) [Example 241, tert-butyl 3-{[5-({[3-methyl-5-(quinoxalin-2-ylamino)-1,2-thiazol-4-yl]carbonyl}amino)pyridin-2-yl]amino}piperidine-1-carboxylate] | 2300
Cc1nsc(Nc2cnc3ccccc3n2)c1C(=O)Nc1ccc(OC2CCNCC2)nc1 [Example 19, 3-Methyl-N-[6-(piperidin-4-yloxy)pyridin-3-yl]-5-(quinoxalin-2-ylamino)-1,2-thiazole-4-carboxamide] | 2100
Cc1nsc(Nc2cncc(C(F)(F)F)n2)c1C(=O)Nc1ccc(C(=O)NC2CCN(C(=O)OC(C)(C)C)CC2)cc1 [Example 222, tert-butyl 4-[(4-{[(3-methyl-5-{[6-(trifluoromethyl)pyrazin-2-yl]amino}-1,2-thiazol-4-yl)carbonyl]amino}benzoyl)amino] piperidine-1-carboxylate] | 820
Cc1nsc(Nc2cnc(C(F)(F)F)cn2)c1C(=O)Nc1ccc(OCCN)c(F)c1 [Example 221, 3-N-[4-(2-aminoethoxy)-3-fluorophenyl]-3-methyl-5-{[5-(trifluoromethyl)pyrazin-2-yl]amino}-1,2-thiazole-4-carboxamide] | 500
Cc1nsc(Nc2cncc(C(F)(F)F)n2)c1C(=O)Nc1ccc(OC2CCCN(C(=O)OC(C)(C)C)C2)nc1 (stereo not shown) [Example 189, tert-butyl 3-[(5-{[(3-methyl-5-{[6-(trifluoromethyl)pyrazin-2-yl]amino}-1,2-thiazol-4-yl)carbonyl]amino}pyridin-2-yl)oxy]piperidine-1-carboxylate] | 450
CNC(=O)c1ccc(NC(=O)c2c(C)nsc2Nc2ccc(C#N)cn2)cc1F [Example 208, 5-[(5-cyanopyridin-2-yl)amino]-N-[3-fluoro-4-(methylcarbamoyl)phenyl]-3-methyl-1,2-thiazole-4-carboxamide] | 41

Further lines, results first:

IC50 [nM] | Compound
7700 | CNS(=O)(=O)c1ccc(NC(=O)c2c(C)nsc2Nc2cc(C#N)ccn2)cc1 [Example 210, 5-[(4-cyanopyridin-2-yl)amino]-3-methyl-N-[4-(methylsulfamoyl)phenyl]-1,2-thiazole-4-carboxamide]
630 | Cc1nsc(Nc2cc(C#N)ccn2)c1C(=O)Nc1cccc(C(=O)OC(C)(C)C)c1 [Example 239, tert-butyl 3-[({5-[(4-cyanopyridin-2-yl)amino]-3-methyl-1,2-thiazol-4-yl}carbonyl)amino]benzoate]
240 | COC(=O)CCc1cccc(NC(=O)c2c(C)nsc2Nc2ccc(C#N)cn2)c1 [Example 176, methyl 3-{3-[({5-[(5-cyanopyridin-2-yl)amino]-3-methyl-1,2-thiazol-4-yl}carbonyl)amino]phenyl}propanoate]
3800 | Cc1nsc(Nc2cnc3ccccc3n2)c1C(=O)Nc1cccc(NC(=O)C(C)(C)C)c1 [Example 186, N-{3-[(2,2-dimethylpropanoyl)amino]phenyl}-3-methyl-5-(quinoxalin-2-ylamino)-1,2-thiazole-4-carboxamide]
140 | Cc1nsc(Nc2cnccn2)c1C(=O)Nc1ccc(C(=O)OC(C)(C)C)cc1 [Example 184, tert-butyl 4-({[3-methyl-5-(pyrazin-2-ylamino)-1,2-thiazol-4-yl]carbonyl}amino)benzoate]
110 | Cc1nsc(Nc2ccc(C#N)cn2)c1C(=O)Nc1ccc(OCCC(=O)OC(C)(C)C)nc1 [Example 199, tert-butyl 3-({5-[({5-[(5-cyanopyridin-2-yl)amino]-3-methyl-1,2-thiazol-4-yl}carbonyl)amino]pyridin-2-yl}oxy)propanoate]
